Laboratory results from DBAASP.
≈ marks a conversion by molar mass, not a printed value. Values belong to the molecule of their own block, whether it stands above or below them.

Legend:
Experiment in all cases: ≥ marks a high value that may be exact or a test limit, other limits are often not marked, values filed in µg/mL are converted to µM
[1] = test system: Candida albicans ATCC 10231
[2] = test system: Staphylococcus aureus ATCC 29213
[3] = test system: Aspergillus brasiliensis ATCC 16404
[4] = test system: Escherichia coli ATCC 25922
[5] = test system: Pseudomonas aeruginosa ATCC 27853
[6] = test system: Enterococcus faecalis ATCC 29212
[7] = test system: Streptococcus sanguinis
[8] = test system: Staphylococcus aureus
[9] = test system: Staphylococcus aureus 209P
[10] = test system: Bacillus subtilis VKM B-501
[11] = test system: Escherichia coli C600
[12] = test system: Pseudomonas aeruginosa CCARM 2002
[13] = test system: Escherichia coli CCARM 1229
[14] = test system: Salmonella typhimurium KCTC 1926
[15] = test system: Staphylococcus aureus KCTC 1621
[16] = test system: Escherichia coli KCTC 1682
[17] = test system: Staphylococcus aureus CCARM 3126
[18] = test system: Staphylococcus epidermidis KCTC 1917
[19] = test system: Acinetobacter baumannii CCARM 12035
[20] = test system: Pseudomonas aeruginosa KCTC 2004
[21] = test system: Salmonella typhimurium CCARM 8007
[22] = test system: Acinetobacter baumannii KCTC 2508
[23] = test system: Bacillus subtilis KCTC 3068
[24] = test system: Salmonella enterica subsp. enterica serovar Typhimurium ATCC 14028
[25] = test system: Streptococcus iniae KCTC 3657
[26] = test system: Bacillus cereus ATCC 10876
[27] = test system: Escherichia coli BW25113 ΔsbmA
[28] = test system: Staphylococcus aureus ATCC 25923
[29] = test system: Acinetobacter baumannii ATCC 19606
[30] = test system: Escherichia coli BW25113
[31] = test system: Klebsiella pneumoniae ATCC 700603
[32] = test system: Escherichia coli D31
[33] = test system: Pseudomonas aeruginosa ATCC 10145
[34] = test system: Staphylococcus aureus ATCC 27660
[35] = test system: Pseudomonas aeruginosa
[36] = test system: Staphylococcus pseudintermedius

SMILES: CC[C@H](C)[C@H](NC(=O)[C@H](CCCCN)NC(=O)CNC(=O)[C@@H]1CCCN1C(=O)[C@H](Cc1cnc[nH]1)NC(=O)[C@H](CC(C)C)NC(=O)[C@H](CC(C)C)NC(=O)[C@H](Cc1ccc(O)cc1)NC(=O)[C@H](CO)NC(=O)CNC(=O)[C@H](Cc1ccc(O)cc1)NC(=O)[C@H](CC(C)C)NC(=O)[C@H](CO)NC(=O)[C@@H](N)CS)C(=O)N[C@@H](CO)C(=O)N[C@@H](Cc1ccc(O)cc1)C(=O)N[C@@H](CO)C(=O)N[C@@H](CC(C)C)C(=O)N[C@@H](Cc1cnc[nH]1)C(=O)N[C@@H](CS)C(=O)N[C@@H](CO)C(=O)N[C@@H](CCCN=C(N)N)C(=O)O [CSLYGSYLLHPGKISYSLHCSR]
MIC [1]: 32 µM (≈ 79.5 µg/mL)
MIC [2]: 32 µM (≈ 79.5 µg/mL)
MIC [3]: ≥ 64 µM
MIC [4]: 16 µM (≈ 39.8 µg/mL)
MIC [5]: 64 µM (≈ 159 µg/mL)
MIC [6]: 16 µM (≈ 39.8 µg/mL)

SMILES: CC[C@H](C)[C@H](NC(=O)[C@H](Cc1ccccc1)NC(=O)[C@@H](N)Cc1ccccc1)C(=O)N[C@@H](Cc1ccccc1)C(=O)N[C@@H](Cc1ccccc1)C(=O)N[C@@H](Cc1ccccc1)C(N)=O [FFIFFF]
MIC [7]: ≥ 32.6 µM
MIC [8]: 14.8 µM (≈ 12.8 µg/mL)

SMILES: CC[C@H](C)[C@H](NC(=O)[C@H](C)NC(=O)[C@H](CCCCN)NC(=O)[C@H](CCCN=C(N)N)NC(=O)CNC(=O)[C@H](Cc1ccccc1)NC(=O)[C@H](CCCCN)NC(=O)[C@H](CCCCN)NC(=O)[C@@H](NC(=O)[C@H](CC(C)C)NC(=O)[C@H](CCCCN)NC(=O)CN)[C@@H](C)CC)C(=O)N[C@@H](CO)C(=O)N[C@@H](Cc1ccc(O)cc1)C(=O)N[C@@H](C)C(=O)N[C@H](C(=O)N[C@@H](CCCCN)C(=O)N[C@@H](CCCCN)C(=O)N[C@@H](C)C(=O)N[C@@H](CCCN=C(N)N)C(=O)NCC(=O)N[C@@H](CCCCN)C(=O)N[C@@H](Cc1cnc[nH]1)C(=O)O)C(C)C [GKLIKKFGRKAISYAVKKARGKH]
MIC [9]: ≥ 36 µM
MIC [10]: 0.7 µM (≈ 1.81 µg/mL)
MIC [11]: 6 µM (≈ 15.5 µg/mL)

SMILES: CSCC[C@H](NC(=O)[C@H](Cc1ccccc1)NC(=O)[C@H](CCCCN)NC(=O)[C@H](CCCN=C(N)N)NC(=O)[C@H](Cc1ccccc1)NC(=O)CNC(=O)[C@H](CC(N)=O)NC(=O)[C@H](CCCN=C(N)N)NC(=O)[C@H](CCCCN)NC(=O)[C@@H](NC(=O)[C@H](CCCN=C(N)N)NC(=O)[C@@H](N)Cc1cnc[nH]1)C(C)C)C(=O)N[C@@H](CCCN=C(N)N)C(=O)N[C@@H](CCCN=C(N)N)C(=O)N[C@@H](CC(C)C)C(=O)N[C@@H](CCCCN)C(=O)N[C@@H](CCCCN)C(=O)N[C@@H](Cc1ccccc1)C(=O)N[C@@H](Cc1ccccc1)C(=O)N[C@@H](C)C(=O)NCC(=O)NCC(=O)O [HRVKRNGFRKFMRRLKKFFAGG]
MIC [24]: 0.731 µM (≈ 2 µg/mL)
MIC [2]: > 46.8 µM
MIC [25]: 11.7 µM (≈ 32 µg/mL)
MIC [26]: 11.7 µM (≈ 32 µg/mL)
MIC [4]: 1.1 µM (≈ 3 µg/mL)
MIC [5]: 2.92 µM (≈ 8 µg/mL)

The remaining lines, values ahead:

MIC [12]: 8 µM (≈ 13.2 µg/mL)
MIC [13]: 8 µM (≈ 13.2 µg/mL)
MIC [14]: 8 µM (≈ 13.2 µg/mL)
MIC [15]: 4 µM (≈ 6.58 µg/mL)
MIC [16]: 4 µM (≈ 6.58 µg/mL)
MIC [17]: 8 µM (≈ 13.2 µg/mL)
MIC [18]: 8 µM (≈ 13.2 µg/mL)
MIC [19]: 4 µM (≈ 6.58 µg/mL)
MIC [20]: 4 µM (≈ 6.58 µg/mL)
MIC [21]: 8 µM (≈ 13.2 µg/mL)
MIC [22]: 4 µM (≈ 6.58 µg/mL)
MIC [23]: 8 µM (≈ 13.2 µg/mL)
SMILES: CC[C@H](C)[C@H](NC(=O)[C@H](CCCCN)NC(=O)[C@H](Cc1c[nH]c2ccccc12)NC(=O)[C@@H](N)CCCN=C(N)N)C(=O)N[C@@H](Cc1ccccc1)C(=O)N[C@@H](CCCCN)C(=O)N[C@@H](CCCCN)C(=O)N[C@H](C(=O)N[C@H](C(=O)N[C@@H](CCCCN)C(=O)N[C@@H](CCCCN)C(=O)N[C@@H](Cc1c[nH]c2ccccc12)C(N)=O)C(C)C)C(C)C [RWKIFKKVVKKW]

MIC [27]: ≥ 32 µM
MIC [28]: > 64 µM
MIC [24]: 4 µM (≈ 11.5 µg/mL)
MIC [29]: 1 µM (≈ 2.87 µg/mL)
MIC [30]: 2 µM (≈ 5.74 µg/mL)
MIC [4]: 2 µM (≈ 5.74 µg/mL)
MIC [5]: 32 µM (≈ 91.9 µg/mL)
MIC [31]: 32 µM (≈ 91.9 µg/mL)
SMILES: CC[C@H](C)[C@H](NC(=O)[C@@H]1CCCN1C(=O)[C@@H]1CCCN1C(=O)[C@H](CCCN=C(N)N)NC(=O)[C@H](Cc1ccccc1)NC(=O)[C@@H]1CCCN1C(=O)[C@@H]1CCCN1C(=O)[C@H](Cc1ccc(O)cc1)NC(=O)[C@H](Cc1ccccc1)NC(=O)[C@@H]1CCCN1C(=O)[C@@H]1CCCN1C(=O)[C@H](CCCN=C(N)N)NC(=O)[C@@H](NC(=O)[C@@H]1CCCN1C(=O)[C@@H]1CCCN1C(=O)[C@H](CCCN=C(N)N)NC(=O)[C@H](CCCN=C(N)N)NC(=O)[C@@H](NC(=O)[C@@H]1CCCN1C(=O)[C@@H]1CCCN1C(=O)[C@H](CCCN=C(N)N)NC(=O)[C@H](Cc1ccccc1)NC(=O)[C@@H](N)CCCN=C(N)N)[C@@H](C)CC)[C@@H](C)CC)C(=O)O [RFRPPIRRPPIRPPFYPPFRPPI]

MIC [32]: 0.94 µM (≈ 2.37 µg/mL)
MIC [33]: 1.88 µM (≈ 4.73 µg/mL)
MIC [34]: 0.47 µM (≈ 1.18 µg/mL)
MIC [31]: 1.88 µM (≈ 4.73 µg/mL)
SMILES: CC[C@H](C)[C@H](NC(=O)CNC(=O)[C@H](CCCCN)NC(=O)[C@H](Cc1ccccc1)NC(=O)[C@H](CC(C)C)NC(=O)[C@H](CCCCN)NC(=O)[C@H](CCCCN)NC(=O)[C@H](C)NC(=O)[C@H](CCCCN)NC(=O)[C@H](CCCCN)NC(=O)[C@H](Cc1c[nH]c2ccccc12)NC(=O)CNC(=O)[C@H](CCCCN)NC(=O)[C@H](C)NC(=O)[C@H](Cc1ccccc1)NC(=O)[C@@H](NC(=O)[C@H](CCCCN)NC(=O)[C@@H](NC(=O)[C@H](CC(C)C)NC(=O)[C@H](CCCCN)NC(=O)[C@@H](N)CCCCN)[C@@H](C)CC)C(C)C)C(=O)NCC(=O)O [KKLIKVFAKGWKKAKKLFKGIG]

MIC [2]: 19.9 µM (≈ 64.8 µg/mL)
MIC [5]: 19.9 µM (≈ 64.8 µg/mL)
MIC [35]: 39.9 µM (≈ 130 µg/mL)
MIC [36]: ≥ 39.9 µM
SMILES: CC(=O)N[C@@H](CCCN=C(N)N)C(=O)N[C@@H](CCCCN)C(=O)N[C@@H](Cc1ccccc1)C(=O)N[C@@H](CC(C)C)C(=O)N[C@@H](CCCN=C(N)N)C(=O)N[C@@H](CCCN=C(N)N)C(=O)N[C@@H](CCCN=C(N)N)C(=O)NCC(=O)N[C@@H](CCC(=O)O)C(=O)N[C@H](C(=O)N[C@@H](C)C(=O)N[C@@H](Cc1cnc[nH]1)C(=O)N[C@@H](Cc1ccccc1)C(=O)N[C@@H](CO)C(=O)N[C@@H](CCC(N)=O)C(=O)N[C@@H](CCCCN)C(=O)N[C@@H](CO)C(=O)N[C@@H](CC(C)C)C(=O)NCC(=O)N[C@@H](CC(C)C)C(=O)N[C@@H](Cc1ccc(O)cc1)C(=O)N[C@@H](CS)C(=O)N[C@@H](Cc1c[nH]c2ccccc12)C(=O)N[C@@H](Cc1c[nH]c2ccccc12)C(=O)N[C@@H](Cc1c[nH]c2ccccc12)C(N)=O)C(C)C [RKFLRRRGEVAHFSQKSLGLYCWWW]
